Assays:
MALME-3M = experiment: SRB growth assay, MALME-3M; assay type: cell-based; conditions: Homo sapiens, MALME-3M (Melanoma), 48 hours, read-out: Percent viability
From the text: (§1) Tested cell lines included, Leukemia: CCRF-CEM, HL-60(TB), MOLT-4, RPMI-8226 and SR; Non-Small Cell Lung: A549/ATCC, EKVX, HOP-62, HOP-92, NCI-H226, NCI-H23, NCI-H322M, NCI-H460 and NCI-H522; Colon: COLO 205, HCC-2998, HCT-116, HCT-15. HT29, KM12 and SW-620; CNS: SF-268, SF-295, SF-539, SNB-19, SNB-75 and U251; Melanoma: LOX IMVI, MALME-3M, M14, MDA-MB-435, SK-MEL-2, SK-MEL-28, SK-MEL-5, UACC-257 and UACC-62; Ovarian: IGR-OV1, OVCAR-3, OVCAR-4, OVCAR-5, OVCAR-8. NCI/ADR-RES and SK-OV-3; Renal: 786-0, A498, ACHN, CAKI-1, RXF 393, SN12C, TK-10 and UO-31; Prostate: DU-145 and PC-3; and Breast: MCF7, MDA-MB-231/ATCC, MDA-MB-468, HS 578T, BT-549 and T-47D.
(§2) The cells were cultured in RPMI1640 media supplemented with 10% Fetal Bovine Serum (FBS), 2 mM glutamine and with 5% CO2 and 37° C. For experiment, 5% of FBS and 50 ug/mL of gentamycin were used. Test articles were 10 μM of NUCL 381-3 or 10 μM NUCL 383-3. The positive control was 10 μM of doxorubicin.
(§3) Cells were plated in 96 well plates. The cells were plated in triplicate. Cells were plated at the densities based on NCI recommendation. Time zero cells (Tz) were fixed the following day with 50% or 80% ice cold Trichloracetic acid (TCA) and washed 5× with water. At 48 hours post addition of treatments, all remaining plates were fixed in 80% ice cold Trichloracetic acid (TCA) and washed 5× with water. After drying, one hundred microliters of 0.4% Sulphorhodamine B (SRB) in 1% acetic acid was added to each plate including the Tzero plate and incubated for 10 minutes at room temperature. After 5 additional washes with 1% acetic acid, plates were allowed to dry. One hundred microliters of Trizma base was added to each well and plates were read at 515 nm.
(§4) Percent of growth was calculated by the following formulas: [Ti/C]×100, where: Tz=absorbance readings for wells at time zero without treatment; C=absorbance readings of untreated cells (without treatment); and Ti=absorbance reading of wells with treatment.

OVCAR-4 = experiment: SRB growth assay, OVCAR-4; assay type: cell-based; conditions: Homo sapiens, OVCAR-4 (Ovarian), 48 hours, read-out: Percent viability
From the text: as §1, §2, §3, §4

HCC-2998 = experiment: SRB growth assay, HCC-2998; assay type: cell-based; conditions: Homo sapiens, HCC-2998 (Colon), 48 hours, read-out: Percent viability
From the text: as §1, §2, §3, §4

MDA-MB-468 = experiment: SRB growth assay, MDA-MB-468; assay type: cell-based; conditions: Homo sapiens, MDA-MB-468 (Breast), 48 hours, read-out: Percent viability
From the text: as §1, §2, §3, §4

MM1S = experiment: SRB growth assay, MM1S; assay type: cell-based; conditions: Homo sapiens, MM1.S, MM1S (Multiple Myeloma), 48 hours, read-out: Percent viability
NCI-H460 = experiment: SRB growth assay, NCI-H460; assay type: cell-based; conditions: Homo sapiens, NCI-H460 (Non-Small Cell Lung), 48 hours, read-out: Percent viability
From the text: as §1, §2, §3, §4

RPMI-8226 = experiment: SRB growth assay, RPMI-8226; assay type: cell-based; conditions: Homo sapiens, RPMI-8226 (Leukemia), 48 hours, read-out: Percent viability
From the text: as §1, §2, §3, §4

NCI-H226 = experiment: SRB growth assay, NCI-H226; assay type: cell-based; conditions: Homo sapiens, NCI-H226 (Non-Small Cell Lung), 48 hours, read-out: Percent viability
From the text: as §1, §2, §3, §4

SK-MEL-5 = experiment: SRB growth assay, SK-MEL-5; assay type: cell-based; conditions: Homo sapiens, SK-MEL-5 (Melanoma), 48 hours, read-out: Percent viability
From the text: as §1, §2, §3, §4

MCF7 = experiment: SRB growth assay, MCF7; assay type: cell-based; conditions: Homo sapiens, MCF7 (Breast), 48 hours, read-out: Percent viability
From the text: as §1, §2, §3, §4

UACC-257 = experiment: SRB growth assay, UACC-257; assay type: cell-based; conditions: Homo sapiens, UACC-257 (Melanoma), 48 hours, read-out: Percent viability
From the text: as §1, §2, §3, §4

NCI-60 Cell Lines = experiment: Inhibiting growth of NCI-60 cell lines (panel summary); assay type: cell-based, human; conditions: 10 μM, compared to doxorubicin
Protocol: NUCL 381-3 and NUCL 383-3 (referred to as “NUCC-00381” and “NUCC-000383” above, respectively) were administered to a variety of cancer cell lines in order to test their ability to inhibit cell growth as compared to doxorubicin.
as §1
The cells were cultured in RPMI1640 media supplemented with 10% Fetal Bovine Serum (FBS), 2 mM glutamine and with 5% CO2 and 37° C. […]
Cells were plated in 96 well plates. […] One hundred microliters of Trizma base was added to each well and plates were read at 515 nm.
as §4

HL-60(TB) = experiment: SRB growth assay, HL-60(TB); assay type: cell-based; conditions: Homo sapiens, HL-60(TB) (Leukemia), 48 hours, read-out: Percent viability
From the text: as §1, §2, §3, §4

TK-10 = experiment: SRB growth assay, TK-10; assay type: cell-based; conditions: Homo sapiens, TK-10 (Renal), 48 hours, read-out: Percent viability
From the text: as §1, §2, §3, §4

HCT-15 = experiment: SRB growth assay, HCT-15; assay type: cell-based; conditions: Homo sapiens, HCT-15 (Colon), 48 hours, read-out: Percent viability
From the text: as §1, §2, §3, §4

[1] = test system: acute leukemia cell lines (THP-1, K562, Kasumi-1, and U937); experiment: Inhibition of viability of acute leukemia cell lines; assay type: cell-based, human; conditions: THP-1, K562, Kasumi-1, U937
Protocol: Compounds 381, 383, 409 (as test compounds) and Compound 501 (as a negative control) were administered to a variety of acute leukemia cell lines (THP-1. K562, Kasumi-1, and U937) in order to test their ability to inhibit cell growth as compared to 8-amino adenosine (8NH2-Ado) and 8-chloro adenosine (8Cl-Ado) (as positive controls) as in the previous Examples.

NCI-H522 = experiment: SRB growth assay, NCI-H522; assay type: cell-based; conditions: Homo sapiens, NCI-H522 (Non-Small Cell Lung), 48 hours, read-out: Percent viability
From the text: as §1, §2, §3, §4

`FC(F)(F)c1cn(CC2CCNCC2)c2ncnc(Cl)c12` [NUCC-0000381] gave a viability at 10 µM (MALME-3M) of 101%, a viability at 10 µM (OVCAR-4) of 53% and a viability at 10 µM (HCC-2998) of 93.5%. The viability at 10 µM (MDA-MB-468) was 102%, the viability at 10 µM (MM1S) was 52.3% and the viability at 10 µM (NCI-H460) was 26.4%. The viability at 10 µM (RPMI-8226) was 100%, the viability at 10 µM (NCI-H226) was 54.9% and the viability at 10 µM (SK-MEL-5) was 100%. The viability at 10 µM (MCF7) was 89.8%, the viability at 10 µM (UACC-257) was 87.2% and the “cell viability across NCI-60 cell lines” value (NCI-60 Cell Lines) was “reduce cell viability for a number of cell lines”. It also gave a viability at 10 µM (HL-60(TB)) of 25.8%, a viability at 10 µM (TK-10) of 88.5% and a viability at 10 µM (HCT-15) of 40.4%. For the same molecule, the cell viability ([1]; FIGS. 11-14) was “reduce cell viability significantly”, the “inhibitory activity relative to positive controls” value ([1]; versus 8NH2-Ado and 8Cl-Ado) was “inhibitory activities approaching those of 8NH2-Ado and 8Cl-Ado” and the viability at 10 µM (NCI-H522) was 38.7%.

`CS(=O)(=O)N1CCC(Cn2cc(C(F)(F)F)c3c(Cl)ncnc32)CC1` [NUCC-0000383] was tested, and the viability at 10 µM (MALME-3M) was 42.7%, the viability at 10 µM (OVCAR-4) was 97% and the viability at 10 µM (HCC-2998) was 73.2%. The viability at 10 µM (MDA-MB-468) was 93.8%, the viability at 10 µM (MM1S) was 58.2% and the viability at 10 µM (NCI-H460) was 69.1%. The viability at 10 µM (RPMI-8226) was 100%, the viability at 10 µM (NCI-H226) was 29.5% and the viability at 10 µM (SK-MEL-5) was 6.11%. For the same molecule, the viability at 10 µM (MCF7) was 108%, the viability at 10 µM (UACC-257) was 74.7% and the viability at 10 µM (HL-60(TB)) was 22.5%. For the same molecule, the viability at 10 µM (TK-10) was 73.9%, the viability at 10 µM (HCT-15) was 38.8% and the viability at 10 µM (NCI-H522) was 21.7%.

With `COc1cccc2c1C(=O)c1c(O)c3c(c(O)c1C2=O)C[C@@](O)(C(=O)CO)C[C@@H]3O[C@H]1C[C@H](N)[C@H](O)[C@H](C)O1` [Doxorubicin, reference compound] the viability at 10 µM (MALME-3M) was 15.8%, the viability at 10 µM (OVCAR-4) was 103% and the viability at 10 µM (HCC-2998) was 20.9%. It also gave a viability at 10 µM (MDA-MB-468) of 45.8%, a viability at 10 µM (MM1S) of 26.4% and a viability at 10 µM (NCI-H460) of 35%. The viability at 10 µM (RPMI-8226) was 44.2%, the viability at 10 µM (NCI-H226) was 34.2% and the viability at 10 µM (SK-MEL-5) was 7.01%. For the same molecule, the viability at 10 µM (MCF7) was 69.1%, the viability at 10 µM (UACC-257) was 100% and the viability at 10 µM (HL-60(TB)) was 25%. The viability at 10 µM (TK-10) was 35.9%, the viability at 10 µM (HCT-15) was 31.1% and the viability at 10 µM (NCI-H522) was 18.1%.
